Measurements: ChEMBL document CHEMBL3044771, “Synthesis, characterization, and in vitro anti-Mycobacterium tuberculosis activity of terpene Schiff bases” (2013)
Converted amounts (≈) assume the structure as drawn.

Key:
Assay type in all cases: functional
[1] = system: Mycolicibacterium smegmatis; assay: Antitubercular activity against Mycobacterium smegmatis ATCC 35797 assessed as growth inhibition after 48 hr by NCCLS agar dilution method; conditions: ATCC 35797, 48 h
Mycobacteroides chelonae = assay: Antitubercular activity against Mycobacterium chelonae ATCC 35751 assessed as growth inhibition after 48 hr by NCCLS agar dilution method; conditions: ATCC 35751, 48 h
Mycobacterium xenopi = assay: Antitubercular activity against Mycobacterium xenopi ATCC 14470 assessed as growth inhibition after 48 hr by NCCLS agar dilution method; conditions: ATCC 14470, 48 h
[2] = system: Mycobacterium intracellulare; assay: Antitubercular activity against Mycobacterium intracellulare ATCC 35743 assessed as growth inhibition after 48 hr by NCCLS agar dilution method; conditions: ATCC 35743, 48 h

| Compound | MIC [1] [µg/mL] | MIC (Mycobacteroides chelonae) [µg/mL] | MIC (Mycobacterium xenopi) [µg/mL] | MIC [2] [µg/mL] |
| --- | --- | --- | --- | --- |
| CC12CCC(C/C1=N/NC(=O)c1ccncc1)C2(C)C (stereo not drawn) | 50 (≈ 184 µM) | 50 (≈ 184 µM) | 50 (≈ 184 µM) | 50 (≈ 184 µM) |
| CCn1cc(C(=O)N/N=C\C=C(/C)CCC=C(C)C)c(=O)c2ccc(C)nc21 | > 100 | > 100 | > 100 | > 100 |
| Cc1cccc(Nc2ccccc2C(=O)N/N=C2\CC3CCC2(C)C3(C)C)c1C (stereo not drawn) | > 100 | > 100 | > 100 | > 100 |
| C=C(C)C1CC=C(C)/C(=N/NC(=O)c2ccccc2Nc2cccc(C)c2C)C1 (stereo not drawn) | > 100 | > 100 | > 100 | > 100 |
| C=C(C)C1CC=C(C)/C(=N/NC(=O)c2ccncc2)C1 (stereo not drawn) | 12 (≈ 44.6 µM) | 12 (≈ 44.6 µM) | 12 (≈ 44.6 µM) | 12 (≈ 44.6 µM) |
| CC(C)=CCC/C(C)=C/C=N/NC(=O)c1ccncc1 | > 100 | > 100 | > 100 | > 100 |
| CCn1cc(C(=O)N/N=C2\CC3CCC2(C)C3(C)C)c(=O)c2ccc(C)nc21 (stereo not drawn) | 50 (≈ 131 µM) | 50 (≈ 131 µM) | 50 (≈ 131 µM) | 50 (≈ 131 µM) |
| CC12CCC(C/C1=N\NC(=O)c1ccccc1Nc1cccc(C(F)(F)F)c1)C2(C)C (stereo not drawn) | > 100 | > 100 | > 100 | > 100 |
| CC(C)=CCC/C(C)=C\C=N/NC(=O)c1ccccc1Nc1cccc(C)c1C | > 100 | > 100 | > 100 | > 100 |
| C=C(C)C1CC=C(C)/C(=N/NC(=O)c2ccccc2Nc2cccc(C(F)(F)F)c2)C1 (stereo not drawn) | > 100 | > 100 | > 100 | > 100 |
| NNC(=O)c1ccncc1 [ISONIAZID] | 12.5 (≈ 91.1 µM) | 12.5 (≈ 91.1 µM) | 12.5 (≈ 91.1 µM) | 12.5 (≈ 91.1 µM) |
| C=C(C)C1CC=C(C)/C(=N\NC(=O)c2cn(CC)c3nc(C)ccc3c2=O)C1 (stereo not drawn) | > 100 | > 100 | > 100 | > 100 |
